Key:
[1] = Plasma protein binding with equilibrium dialysis, human plasma; assay type: in vitro ADME; details: human plasma, 1.0 μM, equilibrium dialysis 2 hours 37° C.
From the text: (§1) Plasma Protein Binding (Determination of Human and Rat Plasma Protein Binding with Equilibrium Dialysis)
(§2) This equilibrium dialysis (ED) technique is used to determine the approximate in vitro fractional binding of test compounds to human and rat plasma proteins.
(§3) Dianorm Teflon dialysis cells (micro 0.2) are used. Each cell consists of a donor and an acceptor chamber, separated by an ultrathin semipermeable membrane with a 5 kDa molecular weight cutoff.
(§4) Stock solutions for each test compound are prepared in DMSO at 1 mM and diluted to a final concentration of 1.0 μM. The subsequent dialysis solutions are prepared in pooled human and rat plasma (with NaEDTA)
(§5) Aliquots of 200 μL dialysis buffer (100 mM potassium phosphate, pH 7.4) are dispensed into the buffer chamber. Aliquots of 200 μL test compound dialysis solution are dispensed into the plasma chambers. Incubation is carried out for 2 hours under rotation at 37° C.
(§6) At the end of the dialysis period, the dialysate is transferred into reaction tubes. The tubes for the buffer fraction contain 0.2 ml Acetonitril/water (80/20). Aliquots of 25 μl of the plasma dialysate are transferred into deep well plates and mixed with 25 μl Acetonitril/water (80/20), 25 μl buffer, 25 μl calibration solution and 25 μl Internal Standard solution. Protein precipitation is done by adding 200 μl Acetonitrile. Aliquots of 50 μl of the buffer dialysate are transferred into deep well plates and mixed with 25 μl blank plasma, 25 μl Internal Standard solution and 200 μl Acetonitril. Samples are measured on HPLC-MS/MS-Systems and evaluated with Analyst-Software.
(§7) Percent bound is calculated with the formula: % bound=(plasma concentration−buffer concentration/plasma concentration)×100 and % free is calculated as difference.

[2] = Metabolic stability in pooled human liver microsomes; assay type: in vitro ADME; details: human liver microsomes, 1 mg/mL protein, 1 μM compound, 37° C.
Experimental: The metabolic degradation of the test compound was assayed at 37° C. with pooled liver microsomes from various species. The final incubation volume of 100 μl per time point contains TRIS buffer pH 7.6 at room temperature (0.1 M), magnesium chloride (5 mM), microsomal protein (1 mg/mL for human and dog, 0.5 mg/mL for other species) and the test compound at a final concentration of 1 μM. Following a short preincubation period at 37° C., the reactions were initiated by addition of betanicotinamide adenine dinucleotide phosphate, reduced form (NADPH, 1 mM), and terminated by transferring an aliquot into solvent after different time points. […] The half-life was determined by the slope of the semi-logarithmic plot of the concentration-time profile.

[3] = tested on: MDCK-MDR1 cell monolayers; assay: Assessment of efflux in MDCK cells transfected with the human MDR1 gene (MDCK assay); assay type: in vitro ADME, canine; details: for Papp (a-b) mean: MDCK-MDR1, apical-to-basal, pH 7.4, 37° C.
Experimental: Assessment of Efflux in Madin-Darby Canine Kidney Cells Transfected with the Human MDR1 Gene (MDCK Assay)
Apparent permeability coefficients (PE) of the compounds across the MDCK-MDR1 cell monolayers are measured (pH 7.4, 37° C.) in apical-to-basal (AB) and basal-to-apical (BA) transport direction. AB permeability (PEAB) represents drug absorption from the blood into the brain and BA permeability (PEBA) drug efflux from the brain back into the blood via both passive permeability as well as active transport mechanisms mediated by efflux and uptake transporters that are expressed on the MDCK-MDR1 cells, predominantly by the overexpressed human MDR1 P-gp. The compounds are assigned to permeability/absorption classes by comparison of the AB permeabilities with the AB permeabilities of reference compounds with known in vitro permeability and oral absorption in the human. Identical or similar permeabilities in both transport directions indicate passive permeation, vectorial permeability points to additional active transport mechanisms. Higher PEBA than PEAB indicates the involvement of active efflux mediated by MDR1 P-gp. Active transport is concentration-dependently saturable.
MDCK-MDR1 cells (1-2×10e5 cells/1 cm2 area) are seeded on filter inserts (Costar transwell polycarbonate or PET filters, 0.4 μm pore size) and cultured (DMEM) for 7 days. Subsequently, the MDR1 expression is boosted by culturing the cells with 5 mM sodium butyrate in full medium for 2 days. Compounds are dissolved in appropriate solvent (like DMSO, 1-20 mM stock solutions). […] The transport solution (TL) is applied to the apical or basolateral donor side for measuring A-B or B-A permeability (3 filter replicates), respectively. The receiver side contains the same buffer as the donor side. Samples are collected at the start and end of experiment from the donor and at various time intervals for up to 2 hours also from the receiver side for concentration measurement by HPLC-MS/MS or scintillation counting. Sampled receiver volumes are replaced with fresh receiver solution. Efflux ratio is calculated dividing the Papp (b-a) values by the Papp (a-b) values.

PDE 2A = PDE 2A (Homo sapiens (Human), UniProt O00408); assay: Phosphodiesterase (PDE) 2A assay with fluorescent substrate (IMAP, fluorescence polarization); assay type: biochemical; details: labeled cAMP 30 nM, read-out: PDE2 IC50
PDE10 = PDE10 (Homo sapiens (Human), UniProt Q9Y233); assay: Phosphodiesterase (PDE) 10 assay with fluorescent substrate (IMAP, fluorescence polarization); assay type: biochemical; details: labeled cAMP 30 nM
[4] = Plasma protein binding with equilibrium dialysis, rat plasma; assay type: in vitro ADME; details: rat plasma, 1.0 μM, equilibrium dialysis 2 hours 37° C.
From the text: as §1, §2, §3, §4, §5, §6, §7

Chain of PDE10 (Q9Y233 whole entry): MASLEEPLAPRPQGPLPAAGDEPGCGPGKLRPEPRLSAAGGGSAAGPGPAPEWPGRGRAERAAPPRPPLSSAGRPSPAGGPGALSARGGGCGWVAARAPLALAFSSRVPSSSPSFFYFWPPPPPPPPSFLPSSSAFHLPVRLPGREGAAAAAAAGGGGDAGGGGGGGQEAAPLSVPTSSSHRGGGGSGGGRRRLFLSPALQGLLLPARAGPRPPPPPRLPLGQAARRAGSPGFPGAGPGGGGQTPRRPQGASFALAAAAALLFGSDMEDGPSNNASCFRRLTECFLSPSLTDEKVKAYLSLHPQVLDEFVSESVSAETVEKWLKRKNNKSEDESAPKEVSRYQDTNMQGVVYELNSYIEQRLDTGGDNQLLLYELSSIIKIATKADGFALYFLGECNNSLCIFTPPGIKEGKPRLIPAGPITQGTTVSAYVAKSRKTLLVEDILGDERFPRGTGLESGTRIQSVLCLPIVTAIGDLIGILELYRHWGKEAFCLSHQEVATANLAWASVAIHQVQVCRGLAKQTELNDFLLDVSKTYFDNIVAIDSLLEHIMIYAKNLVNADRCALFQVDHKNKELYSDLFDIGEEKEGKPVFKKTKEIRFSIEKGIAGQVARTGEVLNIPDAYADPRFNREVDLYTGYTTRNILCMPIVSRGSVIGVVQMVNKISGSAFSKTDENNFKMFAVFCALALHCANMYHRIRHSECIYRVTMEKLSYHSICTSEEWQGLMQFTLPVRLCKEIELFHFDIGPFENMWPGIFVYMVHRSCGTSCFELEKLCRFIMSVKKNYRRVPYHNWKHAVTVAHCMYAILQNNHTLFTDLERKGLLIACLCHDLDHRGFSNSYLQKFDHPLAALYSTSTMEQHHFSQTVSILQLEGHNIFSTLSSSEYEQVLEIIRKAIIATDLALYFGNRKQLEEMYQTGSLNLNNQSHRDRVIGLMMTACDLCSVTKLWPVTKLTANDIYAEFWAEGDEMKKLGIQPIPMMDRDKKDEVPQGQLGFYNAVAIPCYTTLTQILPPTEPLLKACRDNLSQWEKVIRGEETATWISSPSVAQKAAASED
Chain of PDE 2A (O00408 whole entry, species assumed): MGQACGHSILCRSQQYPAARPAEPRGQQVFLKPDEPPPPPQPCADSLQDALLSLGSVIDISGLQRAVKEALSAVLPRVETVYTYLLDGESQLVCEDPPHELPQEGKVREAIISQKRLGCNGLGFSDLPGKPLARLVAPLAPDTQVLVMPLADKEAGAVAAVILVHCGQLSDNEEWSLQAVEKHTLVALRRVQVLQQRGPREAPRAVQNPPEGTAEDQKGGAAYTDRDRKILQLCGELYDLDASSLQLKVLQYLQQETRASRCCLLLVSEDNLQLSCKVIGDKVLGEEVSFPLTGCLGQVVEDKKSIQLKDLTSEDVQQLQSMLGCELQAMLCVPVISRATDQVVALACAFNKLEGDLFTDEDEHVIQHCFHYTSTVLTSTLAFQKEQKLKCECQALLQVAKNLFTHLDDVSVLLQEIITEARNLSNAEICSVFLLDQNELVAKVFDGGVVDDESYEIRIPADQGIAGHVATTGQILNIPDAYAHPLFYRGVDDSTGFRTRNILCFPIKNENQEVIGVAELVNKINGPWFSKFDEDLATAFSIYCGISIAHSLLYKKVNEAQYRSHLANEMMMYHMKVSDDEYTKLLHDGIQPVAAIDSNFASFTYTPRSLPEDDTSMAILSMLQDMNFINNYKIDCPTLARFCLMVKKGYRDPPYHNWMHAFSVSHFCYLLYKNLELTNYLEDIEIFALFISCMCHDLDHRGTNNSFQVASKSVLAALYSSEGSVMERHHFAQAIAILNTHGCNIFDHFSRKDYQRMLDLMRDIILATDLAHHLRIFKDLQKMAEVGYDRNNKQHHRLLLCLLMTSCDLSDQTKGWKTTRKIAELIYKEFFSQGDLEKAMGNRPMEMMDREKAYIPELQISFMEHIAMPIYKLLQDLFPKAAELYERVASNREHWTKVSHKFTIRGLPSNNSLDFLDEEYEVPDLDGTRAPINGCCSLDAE

Row | PPB HUM % BINDING [1] [%] | Half-life t½ human [2] [h] | efflux ratio ([3]; MDCK-MDR1, Papp (b-a) divided by Papp (a-b)) | Papp (a-b) mean [3] | IC50 (PDE 2A) [µM] | IC50 (PDE10) [µM] | PPB RAT % BINDING [4] [%] | SMILES
1 | 81.1 | >2.17 | 1.9 | 23 10-6 cm/s | 0.013 | > 10 |  | O=C(NC1(c2ccc(C(F)(F)F)cc2F)COCC1O)c1cnn2cc(C3CC3)cnc12 (single isomer, unassigned) [Example 71]
2 | 65.3 | >2.17 |  | 64 10-6 cm/s |  | > 10 | 66.2 | Cc1cnc2c(C(=O)NC3(c4ccc(C(F)(F)F)cc4F)CCOCC3O)cnn2c1 (single isomer, unassigned) [Example 81b]

Reference: patent publication US10023575B2, “Cyclic ether derivatives of pyrazolo[1,5-a]pyrimidine-3-carboxyamide” (Boehringer Ingelheim International GmbH, priority 2015, dated 2018)
